pIC50: −log10 of the molar value.
tested on: Trypanosoma cruzi; test: Antitrypanosomal activity against epimastigote forms of Trypanosoma cruzi Y after 72 hr; type: functional, organism-based; conditions: not given; call rule not given here

Compound | IC50
COC(=O)/C=C/c1cc(OC)c(OC)c(OC)c1 | Not Active
CC(C)CNC(=O)/C=C/CCc1ccc2c(c1)OCO2 [4,5-DIHYDROPIPERLONGUMININE] | Not Active
CC(C)CNC(=O)/C=C/c1ccc2c(c1)OCO2 [FOGARAMIDE] | Not Active
O=C(/C=C/CCc1ccc2c(c1)OCO2)N1CCCCC1 [PIPERANINE] | Not Active
O=C(O)/C=C/C=C/c1ccc2c(c1)OCO2 [PIPERIC ACID] | Not Active

Now from value to molecule:

IC50 | Compound
Not Active | COc1cc(/C=C/C(=O)O)cc(OC)c1OC [SINAPIC ACID METHYL ETHER]
Not Active | CCCCCCCCCC(=O)NCC(C)C [TETRAHYDROPELLITORINE]
Not Active | O=C(CCCCc1ccc2c(c1)OCO2)N1CCCCC1 [TETRAHYDROPIPERINE]
Not Active | COc1cc(CCC(=O)N2CCCCC2=O)cc(OC)c1OC [TETRAHYDROPIPLARTINE]

same assay, conditions: Trypanosoma cruzi, Y, 72 h; read-out: IC50

Compound | pIC50
COc1cc(/C=C\C(=O)N2CCC=CC2=O)cc(OC)c1OC [(Z)-PIPLARTINE] | 4.98
CCCCC/C=C/C=C/C(=O)NCC(C)C [PELLITORIN] | 4.24

Next, values leading:

pIC50 | Compound
3.63 | O=C(/C=C/C=C/c1ccc2c(c1)OCO2)N1CCCCC1 [PIPERINE]
4.68 | COc1cc(/C=C/C(=O)N2CCC=CC2=O)cc(OC)c1OC [PIPLARTINE]

— ChEMBL document CHEMBL3044681, “Piperamides and their derivatives as potential anti-trypanosomal agents” (Med Chem Res, 2009)
